Measured values reported in the NIST ThermoML archive (doi:10.1021/je300873x).

Test: mn = molality of the nth substance listed, in mol/kg
Settings: for surface tension liquid-gas: Pendant drop shape; for electrical conductivity: Liquid, Digital conductivity meter

O [water] + CCCCCCCCCCCC[N+](C)(CCO)CCO.[Br-]
Settings	surface tension liquid-gas [mN/m]
298.15 K, m2 = 0	72.17

O [water] + CCCCCCCCCCCCCCCC[N+](C)(CCO)CCO.[Br-]
Settings	surface tension liquid-gas [mN/m]
298.15 K, m2 = 0	72.17

CCCCCCCCCCCCCCCC[N+](C)(CCO)CCO.[Br-] [hexadecyl- di(2-hydroxyethyl)-methylazanium bromide] + O
Settings	electrical conductivity [S/m]	surface tension liquid-gas [mN/m]
298.15 K, m1 = 0.00011	–	64.14
298.15 K, m1 = 0.00021	–	58.32
298.15 K, m1 = 0.00032	–	52.91
298.15 K, m1 = 0.00042	–	47.72
298.15 K, m1 = 0.00053	–	44.77
298.15 K, m1 = 0.00056	0.0055	–
298.15 K, m1 = 0.00058	0.0057	–
298.15 K, m1 = 0.0006	0.0059	–
298.15 K, m1 = 0.00063	0.0062	41.55
298.15 K, m1 = 0.00065	0.0064	–
298.15 K, m1 = 0.00068	0.0067	–
298.15 K, m1 = 0.00072	0.0069	–
298.15 K, m1 = 0.00074	–	38.75
298.15 K, m1 = 0.00075	0.0072	–
298.15 K, m1 = 0.00079	0.0073	38.7
298.15 K, m1 = 0.00084	0.0075	38.62
298.15 K, m1 = 0.00089	0.0077	38.55
298.15 K, m1 = 0.00094	0.0078	–
298.15 K, m1 = 0.00095	–	38.02
298.15 K, m1 = 0.001	0.0081	–
298.15 K, m1 = 0.00105	–	38.11
298.15 K, m1 = 0.00108	0.0083	–
298.15 K, m1 = 0.00116	0.0086	37.87
298.15 K, m1 = 0.00126	0.0089	37.86
298.15 K, m1 = 0.00137	0.0092	–
298.15 K, m1 = 0.00151	0.0094	–
303.15 K, m1 = 0.00032	0.0034	–
303.15 K, m1 = 0.00035	0.0038	–
303.15 K, m1 = 0.00039	0.0042	–
303.15 K, m1 = 0.00043	0.0046	–
303.15 K, m1 = 0.0005	0.0052	–
303.15 K, m1 = 0.00058	0.0061	–
303.15 K, m1 = 0.00063	0.0066	–
303.15 K, m1 = 0.00068	0.007	–
303.15 K, m1 = 0.00075	0.0075	–
303.15 K, m1 = 0.00084	0.0081	–
303.15 K, m1 = 0.00094	0.0086	–
303.15 K, m1 = 0.001	0.0088	–
303.15 K, m1 = 0.00107	0.0091	–
303.15 K, m1 = 0.00116	0.0094	–
303.15 K, m1 = 0.00125	0.0097	–
303.15 K, m1 = 0.00137	0.01	–
303.15 K, m1 = 0.0015	0.0105	–
308.15 K, m1 = 0.00031	0.0037	–
308.15 K, m1 = 0.00035	0.004	–
308.15 K, m1 = 0.00038	0.0044	–
308.15 K, m1 = 0.00043	0.0049	–
308.15 K, m1 = 0.00049	0.0057	–
308.15 K, m1 = 0.00058	0.0067	–
308.15 K, m1 = 0.00063	0.0072	–
308.15 K, m1 = 0.00068	0.0078	–
308.15 K, m1 = 0.00075	0.0084	–
308.15 K, m1 = 0.00083	0.009	–
308.15 K, m1 = 0.00094	0.0097	–
308.15 K, m1 = 0.001	0.01	–
308.15 K, m1 = 0.00107	0.0102	–
308.15 K, m1 = 0.00116	0.0106	–
308.15 K, m1 = 0.00125	0.0108	–
308.15 K, m1 = 0.00137	0.0112	–
308.15 K, m1 = 0.0015	0.0117	–
313.15 K, m1 = 0.00058	0.0073	–
313.15 K, m1 = 0.0006	0.0075	–
313.15 K, m1 = 0.00062	0.0078	–
313.15 K, m1 = 0.00065	0.0081	–
313.15 K, m1 = 0.00068	0.0084	–
313.15 K, m1 = 0.00071	0.0088	–
313.15 K, m1 = 0.00075	0.009	–
313.15 K, m1 = 0.00079	0.0097	–
313.15 K, m1 = 0.00083	0.0101	–
313.15 K, m1 = 0.00088	0.0105	–
313.15 K, m1 = 0.00094	0.0109	–
313.15 K, m1 = 0.001	0.0112	–
313.15 K, m1 = 0.00107	0.0116	–
313.15 K, m1 = 0.00115	0.012	–
313.15 K, m1 = 0.00125	0.0124	–
313.15 K, m1 = 0.00136	0.0128	–
313.15 K, m1 = 0.0015	0.0133	–
318.15 K, m1 = 0.00055	0.0075	–
318.15 K, m1 = 0.00058	0.0078	–
318.15 K, m1 = 0.0006	0.008	–
318.15 K, m1 = 0.00062	0.0084	–
318.15 K, m1 = 0.00065	0.0087	–
318.15 K, m1 = 0.00068	0.0091	–
318.15 K, m1 = 0.00071	0.0095	–
318.15 K, m1 = 0.00075	0.0099	–
318.15 K, m1 = 0.00079	0.0105	–
318.15 K, m1 = 0.00083	0.0111	–
318.15 K, m1 = 0.00088	0.0116	–
318.15 K, m1 = 0.00093	0.0122	–
318.15 K, m1 = 0.001	0.0127	–
318.15 K, m1 = 0.00107	0.0131	–
318.15 K, m1 = 0.00115	0.0135	–
318.15 K, m1 = 0.00125	0.0139	–
318.15 K, m1 = 0.00136	0.0145	–
318.15 K, m1 = 0.0015	0.0152	–
323.15 K, m1 = 0.00055	0.008	–
323.15 K, m1 = 0.00057	0.0083	–
323.15 K, m1 = 0.0006	0.0086	–
323.15 K, m1 = 0.00062	0.0089	–
323.15 K, m1 = 0.00065	0.0093	–
323.15 K, m1 = 0.00068	0.0097	–
323.15 K, m1 = 0.00071	0.0101	–
323.15 K, m1 = 0.00075	0.0106	–
323.15 K, m1 = 0.00079	0.0112	–
323.15 K, m1 = 0.00083	0.0117	–
323.15 K, m1 = 0.00088	0.0124	–
323.15 K, m1 = 0.00093	0.0131	–
323.15 K, m1 = 0.00099	0.0137	–
323.15 K, m1 = 0.00107	0.0143	–
323.15 K, m1 = 0.00115	0.0148	–
323.15 K, m1 = 0.00124	0.0154	–
323.15 K, m1 = 0.00136	0.0161	–
323.15 K, m1 = 0.00149	0.0169	–
